Assay results: US20060111289A1, “Compositions and methods of using Alpha-fetoprotein growth inhibitory peptides” (Serometrix, LLC,, priority 2004, published 2006)
Where a SMILES comes first, the peptide text is derived from it.

What was measured:
[1] = tested on: cell cycle gene mRNA in MCF-7 cells; assay: Quantitative RT-PCR of cell cycle gene mRNA in MCF-7 cells; assay type: cell-based, human; conditions: for Cyclin E1 mRNA levels, Fold Decrease: eight day treatment
Method: MCF-7 cell cultures grown in charcoal-stripped medium for 24 hours were seeded in 6-well plates and allowed to attach for 24 hours before treatment with 1×10^−7M of the cyclic, linear, or scrambled peptide, or a vehicle control for either 24 or 48 hours. Total RNA was isolated using TriReagent (Molecular Research Center Inc.) and quantified using the Genequant Pro (Ambersham Biosciences).
Standard curves for each primer were prepared and RNA samples were reverse transcribed and screened for the genes of interest using the One Step RT-PCR kit (Qiagen Inc.) in the Roche Light Cycler. Each sample was run in duplicate, and the entire experiment was replicated resulting in two independent samples for each treatment.
MCF-7 cell cultures were maintained in medium with charcoal-stripped bovine serum for 24 hours prior to seeding in 6-well plates. Seeding densities varied with treatment time and were aimed at obtaining 80% confluent cell cultures at the time of harvesting; after 24, 48, or 72 hours of treatment. RNA isolation was performed as above.
MCF-7 cell cultures were maintained as above and seeded in 6-well plates at a low seeding density to obtain cell cultures that were 80% confluent at the end of the treatment. Cell cultures were treated with various concentrations of the cyclic peptide 24 hours after seeding and then every two days until harvesting the cells at day eight post-treatment RNA was isolated from each treatment.
MCF-7 cells were seeded in DC5 medium into each well of two 6-well plates and allowed to attach for 24 hours at which point the seeding medium was exchanged for serum-free medium for 24 hours. After 24 hours in serum-free medium the cells were re-fed with DC5-stripped medium containing either the vehicle control (DMSO) or GIP (from 1×10^−14 to 1×10^−5 M). Cells were re-fed every 48 hours until they were harvested after eight days of treatment and RNA was isolated. The entire procedure was repeated resulting in two independent RNA isolations. The quantity and quality of RNA isolated from each eight-day exposure for each of the concentrations are shown below. The quantity and quality of RNA obtained from these exposures is sufficient to determine the RNA expression levels of numerous genes.
MCF-7 cells were seeded at 1×10^6 cells per well in 6-well plates. The cells were incubated for 192 h in medium containing charcoal/dextran-treated BCS and test compounds described above in the proliferation assay. Peptide was administered each day for 8 days. Total RNA was isolated using the RNAqueous 4 PCR kit (Ambion Inc.) or Tri Reagent (Molecular Research Center, Inc.). The quality of the RNAs were assessed by electrophoresis on denaturing agarose gels and were quantified at 260 nm with the Genequant Pro (Amersham Biosciences).
Details for the quantitative RT-PCR protocol were previously reported. Fasco et al., “Quantitative RNA-polymerase chain reaction-DNA analysis by capillary electrophoresis and laser-induced fluorescence” Anal. Biochem. 224:140-147 (1995). Briefly, RNA samples were reverse transcribed and amplified using the One Step RT-PCR kit (Qiagen Inc.) in the Roche Light Cycler. Total RNA was diluted to […] for all genes assayed except for 28S, which was diluted to 0.001 mg/ml. Diluted total RNA ([…]) was incubated with Qiagen RT-PCR master mix and was reverse transcribed for 30 min at 50° C. Following reverse transcription, samples were heated for 15 min at 95° C. to activate the HotStarTaq DNA polymerase and to simultaneously inactivate the reverse transcriptase. Gozgit et al., “Differential action of polycyclic aromatic hydrocarbons on endogenous estrogen-responsive genes and on a transfected estrogen-responsive reporter in MCF-7 cells” Toxicol. & Appl. Pharmacol. 196:58-67 (2004).
Gene-specific primers ([…]) were used for the following: Cyclin D3, D1, CDK2, CDK4, CDK6, RB1, Ki67, Cyclin E1, Cyclin BI, and with B-Actin serving as housekeeping (control) gene. […]

MCF-7 cells = assay: MCF-7 cell proliferation assay (8 days, sulforhodamine B); assay type: cell-based, human
Method: MCF-7 cells were seeded at 25,000 cells/well in 48 well microtiter plates, and incubated for eight days in the various test and control reagents. […] Tumor cells were fixed after 8 days and analyzed for proliferation using the standard sulfarhodamine B staining procedure.

[2] = tested on: 6WI-1 mammary tumor cells; assay: 6WI-1 mammary tumor in 15-day old mouse pups (6 day assay); assay type: in vivo; parameters: % Inhibition Of Activity: 6WI-1 Pup Ascites: concentration or dose not given beside the values; conditions: mouse pups
Description: As an alternative model of the 6WI-I mammary tumor in adult mice, an inocula of 1×10^6 tumor cells injected into 15-day old mouse pups provided a 6 day rather than a 12 day assay and replicated the same tumor growth suppression by GIP.

MCF-7 and GI-101 cells = assay: ATP luminescence cytostatic assay (6 days); assay type: cell-based, human; conditions: peptide 10^−12 to 10^−8 M
Description: FIG. 2 presents exemplary data for both in vivo and in vitro growth suppressive activities of the GIP-derived P149 and control peptides are depicted in GI-101 human ductal breast carcinoma and in MCF-7 human glandular breast carcinoma. • Panels A and A2: GI-101 and MCF-7 xenograft in nude mice administered P149 time-release pellets for 60 days and 30 days, respectively (N=5 mice/group). • Panels B and B2: GI-101 and MCF-7 in cell cultures treated with P149 and P187 at concentrations from 10-8 to 10-12 M for 6 days and assayed by ATP luminescence reagent employing a luciferin-luciferase system. The ATP assay, used to distinguish between cytostasis versus cytotoxicity, was used to confirm that P149 was cytostatic in its cell inhibitory activity at 6 days (see text for details).
In order to confirm whether P149 was indeed cytostatic, and not cytotoxic, an ATP-based cytostatic assay was performed which measures the decrease in cytosolic ATP during drug (i.e., for example, GIP peptide) treatment. This ATP luminescence assay has long been employed to distinguish between cytostatic versus cytotoxic chemotherapeutic sensitivity of drugs. […] After incubation of the cell cultures for 6 days, cytosolic ATP was extracted, stabilized, and quantitated from a standard curve produced from Berthold LB-96P luminometer readings using a luciferin-luciferase counting reagent.

[3] = tested on: human kidney tumor cell line

| Molecule | mRNA levels of CDK2, CDK4, CDK6, Cyclin D1, CCND3, RB1 ([1]; 1×10^−7 M, 24 or 48 hours) | Cyclin D1 mRNA, fold increase ([1]; 8 days) [fold] | Ki67, cdk2, cdk6, and Cyclin B1 mRNA levels ([1]; 8 days) | Rb1 mRNA, fold increase ([1]; 8 days) [fold] | cdk4 mRNA, fold increase ([1]; 8 days) [fold] | Expression of Cyclin D1, RB1 and CDK4 ([1]; 8 days, 0.1 nM (Cyclin D1 and RB1) or 1 pM (CDK4)) | Cyclin-E mRNA, fold reduction ([1]; 8 days, 10^−8 to 10^−12 M) [fold] | Expression levels of Cyclin E1 ([1]; 8 days, each of the five concentrations tested) | Ki67, cdk2, cdk6, and Cyclin B1 mRNA levels ([1]; 8 days, listed as cyclic peptide) | Cyclin E1 mRNA levels, Fold Decrease ([1]; concentration 1e−08 (10 nM)) [fold] | Cyclin E1 mRNA levels, Fold Decrease ([1]; concentration 1e−09) [fold] | Cyclin E1 mRNA levels, Fold Decrease ([1]; concentration 1e−10) [fold] | Cyclin E1 mRNA levels, Fold Decrease ([1]; concentration 1e−11) [fold] | Cyclin E1 mRNA levels, Fold Decrease ([1]; concentration 1e−12 (1 pM)) [fold] | Growth suppression of MCF-7 cells (MCF-7 cells; 8 days, 10^−8 to 10^−12 M) [%] | Most effective concentration for growth suppression (MCF-7 cells; culture day-8, tested 10^−5 to 10^−14 M) | % Inhibition Of Activity: 6WI-1 Pup Ascites [2] [%] | Growth inhibition / decrease in cytosolic ATP in the ATP luminescence assay (MCF-7 and GI-101 cells) | % Inhibition Of Activity: Kidney tumor growth [3] [%] |
| --- | --- | --- | --- | --- | --- | --- | --- | --- | --- | --- | --- | --- | --- | --- | --- | --- | --- | --- | --- |
| CC[C@H](C)[C@H](NC(=O)[C@@H]1CSSC[C@H](NC(=O)[C@H](C)NC(=O)[C@H](CC(C)C)NC(=O)[C@H](CC(C)C)NC(=O)[C@H](CCCCN)NC(=O)[C@H](CC(=O)O)NC(=O)[C@H](CCC(=O)O)NC(=O)[C@H](CO)NC(=O)[C@@H](N)CC(C)C)C(=O)NCC(=O)N[C@@H](CCC(=O)O)C(=O)NCC(=O)N[C@@H](C)C(=O)N[C@@H](C)C(=O)N[C@@H](CC(=O)O)C(=O)N[C@@H]([C@@H](C)CC)C(=O)N[C@@H]([C@@H](C)CC)C(=O)N[C@@H]([C@@H](C)CC)C(=O)NCC(=O)N[C@@H](Cc2c[nH]cn2)C(=O)N[C@@H](CC(C)C)C(=O)N1)C(=O)N[C@@H](CCCNC(=N)N)C(=O)N[C@@H](Cc1c[nH]cn1)C(=O)N[C@@H](CCC(=O)O)C(=O)N[C@@H](CCSC)C(=O)N[C@H](C(=O)N1CCC[C@H]1C(=O)N[C@H](C(=O)N[C@@H](CC(N)=O)C(=O)N1CCC[C@H]1C(=O)NCC(=O)N[C@H](C(=O)O)C(C)C)C(C)C)[C@@H](C)O [Cyclic GIP] (HELM PEPTIDE1{L.S.E.D.K.L.L.A.C.G.E.G.A.A.D.I.I.I.G.H.L.C.I.R.H.E.M.T.P.V.N.P.G.V}$PEPTIDE1,PEPTIDE1,9:R3-22:R3$$$V2.0; N-terminus and C-terminus assumed) | did not result in significant changes in mRNA levels | 1.71 | no effect | 2.4 | 2.4 | increased about two-fold | 2.1 to 4.6 | greatly reduced | little changes in mRNA expression levels | 4.58 | 3.03 | 2.07 | 2.36 | 3.26 | 80 to 90 | 10^−8 M |  |  |  |
| KDFIHKQGVALQTMKQELINLVKELVKPQIEAVADFSGLL (listed as Homo sapiens) [P192, reference compound] |  |  |  |  |  |  |  |  |  |  |  |  |  |  |  |  | 0 | not significantly different from the non-treated control | 0 |
